The numbers were not newly measured in patent US20240060990A1, “SPATIAL SIGNALING NETWORKS FOR MULTIPLEXED DRUG RESPONSE MEASUREMENT AND MODELING” (Georgia Tech Research Corporation, priority 2022, published 2024), which cites them from elsewhere.

The data set relates to PC-9 cell cultures. As to conditions: PC-9 cells, combined with Osimertinib; cited from earlier work.

As to `CC(C)Nc1cc(-c2c[nH]c(C(=O)N[C@H](CO)c3cccc(Cl)c3)c2)c(Cl)cn1` [VRT, VRT752271], the cell apoptosis entry is recorded as “enhanced”. For the compound `C=CC(=O)N1CCC(C)(Nc2cccc(C(F)(F)F)c2)C1` (centres unmarked) [YAP/TEAD inhibitor, MYF-01-37], the cell apoptosis result is given as “enhanced”.
